Results from patent US20090023737A1, “Imidazo-Pyridazines, Triazolo-Pyridazines and Related Benzodiazepine Receptor Ligands” (NEUROGEN CORPORATION, priority 2004, published 2009).

Target: benzodiazepine site of the GABAA receptor
Assay: Radioligand binding assay, 3H-Ro15-1788 (Flumazenil), purified rat cortical membranes
Details: previously determined; used in the Cheng-Prusoff equation; read-out: binding dissociation constant (Kd) of 3H-Ro15-1788

`CCOC(=O)c1ncn2c1CN(C)C(=O)c1cc(F)ccc1-2` [^3H-Ro15-1788] gave a Kd of 1 nM.
